Patent US20240316042A1 (AbbVie Inc., priority 2023, published 2024)
In brackets after ≈: the same amount, converted by molar mass. Where two headings read alike, the source gives them in different places.

Legend:
[1] = test system: pediatric patients with pcJIA; test: Phase 1 open-label study in pediatric pcJIA patients: efficacy (JIA ACR, JADAS-27, C-HAQ);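 further: values come from an interim analysis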
Procedure: Based on these parameters, the following composite efficacy endpoints were evaluated: • JIA ACR pediatric 30/50/70/90/100 responses • Change from Baseline in JADAS10/27/71 responses, as well as JADAS-based criteria for low disease activity and remission (if deemed useful and appropriate).
This was an interim analysis.
(§1) This interim analysis includes all available pharmacokinetic and safety data and efficacy data collected through Week 48, excluding patients enrolled in the long-term safety cohort.

[2] = Phase 1 open-label study in pediatric subjects with severe atopic dermatitis: pharmacokinetics on Day 7; assay type: in vivo, human; conditions: for half-life / Cmax: human, plasma, oral; for half-life: read-out: t1/2, harmonic mean (pseudo standard deviation) (converted)
Procedure: (§2) This was an open-label, multiple-dose study. AD patients (N=35) were enrolled into four cohorts (Cohort 1, 6 to <12 years with low dose; Cohort 2, 6 to <12 years with high dose; Cohort 3, 2 to <6 years with low dose; Cohort 4, 2 to <6 years with high dose). […] PK was evaluated on Day 7 post first dose. Safety was evaluated throughout the study. Exploratory efficacy parameters were collected at specified timepoints.
(§3) Part 1 was a multiple-dose, open-label, multiple-cohort study that consisted of two sequential multiple-ascending dose groups (Low Dose and High Dose levels) in the two age groups. (Group 1: 6 to <12 years and Group 2: 2 to <6 years).
There was one additional subject who was enrolled in Cohort 3 but withdrew informed consent before PK assessment. This subject was therefore not included in PK analyses.

[3] = Solubility of upadacitinib in different aqueous media at 37° C.; assay type: physicochemical; conditions: 50 mM carbonate buffer, pH 9.11
Source text: For pediatric use, an oral solution was developed to improve acceptability (palatability and swallowability), stability, and manufacturability. […] Thus, low pH buffers such as citrate, phosphate, tartrate, and formate are suitable to prepare the oral solution. […] Citrate buffer was selected because it has favorable pKa (˜3.1), which is close to the final pH of the oral solution.

[4] = Phase 1 open-label study in pediatric pcJIA patients: pharmacokinetics at steady state (Day 7); assay type: in vivo, human; conditions: for AUC / half-life: human, plasma, oral; for AUC / half-life / AUC0-24, geometric mean / CLss/F, geometric mean / CLss/F_adjusted (adjusted for bioavailability), geometric mean: Day 7; for AUC: read-out: AUCtau, geometric mean; for half-life: read-out: Functional t1/2, harmonic mean (converted)
Procedure: (§4) Part 1 was a multiple-dose, open-label, multiple-cohort study. Two sequential multiple-ascending dose levels (Low Dose and High Dose levels) were evaluated in the 12 to <18 years age group (Group 1), and one dose level (Low Dose) was evaluated in the two younger age groups (Group 2: 6 to <12 years, and Group 3: 2 to <6 years). Low Dose and High Dose cohorts in age group 1 enrolled 9 subjects each.
(§5) The study enrolled at least 10 subjects below 30 kg. Recruitment of subjects was conducted through a staggered approach based on age. […] Part 3 was an additional safety cohort. […] Part 3 was open to age groups in which Part I enrollment was completed. […] Doses were adjusted during the study for any of the body weight categories after review of results from the subjects who completed Study Part 1.
In Part 1, the dose was administered according to three body weight categories. Subjects were categorized based on age group, and the dose administered for seven consecutive days will be based on three different body weight categories per dose level shown in Table 2.
Patients (N=51) diagnosed with pcJIA were enrolled into one of four groups in an open-label, multiple-dose study (Group 1, 12 to <18 years, low dose; Group 2, 12 to <18 years, high dose; Group 3, 6 to <12 years, low dose; Group 4, 2 to <6 years, low dose). […] Pharmacokinetic assessment was performed at steady state on Study Day 7, after which all patients might continue the study with low dose.

[5] = Population pharmacokinetic analyses of upadacitinib exposure in adults / adult RA patients; conditions: for median average plasma exposure over a dosing interval: adult RA patients; for AUC0-24 at steady state, model-estimated: adults
Procedure: In Part 1, the dose was administered according to three body weight categories.
The doses selected for this study account for the difference in oral bioavailability between the extended-release tablet formulation and the oral solution. […] Doses were adjusted during the study for any of the body weight categories after review of results from the subjects who completed Part 1.

[6] = test system: pediatric subjects with severe atopic dermatitis; test: Phase 1 open-label study in pediatric subjects with severe atopic dermatitis: safety
Procedure: as §2, §3

[7] = test system: pediatric patients with pcJIA; test: Phase 1 open-label study in pediatric pcJIA patients: safety (adverse events)
Procedure: as §4, §5
This was an interim analysis.
as §1

[8] = test system: pediatric subjects with severe atopic dermatitis; test: Phase 1 open-label study in pediatric subjects with severe atopic dermatitis: efficacy (vIGA-AD, EASI); assay type: in vivo, human; conditions: Week 12 (as observed)
Procedure: as §2
During Part 2 of the study, concomitant topical medications for AD were allowed during the study per investigator discretion.
No formal statistical comparisons were planned.

[9] = AD Cohort 1: 6 to <12 years, Low Dose, IR Solution, Day 7
[10] = AD Cohort 2: 6 to <12 years, High Dose, ER Tablet, Day 7
[11] = AD Cohort 2: 6 to <12 years, High Dose, IR Solution, Day 7
[12] = AD Cohort 3: 2 to <6 years, Low Dose, IR Solution, Day 7
[13] = AD Cohort 4: 2 to <6 years, High Dose, IR Solution, Day 7
[14] = pcJIA Group 3: 6 to <12 years, low dose, BID solution
[15] = pcJIA Group 4: 2 to <6 years, low dose, BID solution
[16] = pcJIA Group 1: 12 to <18 years, low dose, QD tablet
[17] = pcJIA Group 2: 12 to <18 years, high dose, QD tablet
[18] = pcJIA Group 3: 6 to <12 years, low dose, QD tablet
[19] = pcJIA Group 3: 6 to <12 years, low dose, tablet and solution combined
[20] = Enrollment on or after protocol v4.0, N 7
[21] = Enrollment up to protocol v3.0, N 20

SMILES: CC[C@@H]1CN(C(=O)NCC(F)(F)F)C[C@@H]1c1cnc2cnc3[nH]ccc3n12 [upadacitinib, (3S,4R)-3-ethyl-4-(3H-imidazo[1,2-a]pyrrolo[2,3-e]pyrazin-8-yl)-N-(2,2,2-trifluoroethyl)pyrrolidine-1-carboxamide]
- C-HAQ, Change from Baseline Mean ([…]% CI) ([1]; Week 12, Overall): −0.45 (−0.63, −0.27)
- C-HAQ, Change from Baseline Median (Min, Max) ([1]; Week 12, Overall): −0.38 (−1.9, 1.1)
- ESR, Change from Baseline Median (Min, Max) ([1]; Week 12, Overall): −4.0 (−41, 26) ^
- Patient/Parent Global Assessment of Overall Well Being (VAS), Change from Baseline Median (Min, Max) ([1]; Week 12, Overall): −26.0 (−81, 37) ^
- Physician's Global Assessment of Disease Activity (VAS), Change from Baseline Median (Min, Max) ([1]; Week 12, Overall): −49.0 (−100, 9) ^
- Total Number of Active Joints, Change from Baseline Median (Min, Max) ([1]; Week 12, Overall): −8.0 (−25, 0) ^
- C-HAQ, Change from Baseline Mean ([…]% CI) ([1]; Week 12, age 2 to <6 years): −0.31 (−0.77, 0.15)
- C-HAQ, Change from Baseline Median (Min, Max) ([1]; Week 12, age 2 to <6 years): −0.38 (−1.3, 1.1)
- ESR, Change from Baseline Median (Min, Max) ([1]; Week 12, age 2 to <6 years): −7.0 (−39, 2) ^
- Patient/Parent Global Assessment of Overall Well Being (VAS), Change from Baseline Median (Min, Max) ([1]; Week 12, age 2 to <6 years): −38.0 (−81, 37) ^
- Physician's Global Assessment of Disease Activity (VAS), Change from Baseline Median (Min, Max) ([1]; Week 12, age 2 to <6 years): −49.0 (−72, −25)
- Total Number of Active Joints, Change from Baseline Median (Min, Max) ([1]; Week 12, age 2 to <6 years): −6.0 (−12, −3)
- C-HAQ, Change from Baseline Mean ([…]% CI) ([1]; Week 12, age 6 to <12 years): −0.64 (−0.95, −0.34)
- C-HAQ, Change from Baseline Median (Min, Max) ([1]; Week 12, age 6 to <12 years): −0.38 (−1.9, 1.1)
- ESR, Change from Baseline Median (Min, Max) ([1]; Week 12, age 6 to <12 years): −4.0 (−41, 7) ^
- Patient/Parent Global Assessment of Overall Well Being (VAS), Change from Baseline Median (Min, Max) ([1]; Week 12, age 6 to <12 years): −29.0 (−61, 9) ^
- Physician's Global Assessment of Disease Activity (VAS), Change from Baseline Median (Min, Max) ([1]; Week 12, age 6 to <12 years): −55.0 (−100, −28)
- Total Number of Active Joints, Change from Baseline Median (Min, Max) ([1]; Week 12, age 6 to <12 years): −8.0 (−24, −4)
- C-HAQ, Change from Baseline Mean ([…]% CI) ([1]; Week 12, age 12 to <18 years): −0.33 (−0.58, −0.09)
- C-HAQ, Change from Baseline Median (Min, Max) ([1]; Week 12, age 12 to <18 years): −0.31 (−1.1, 0.5)
- ESR, Change from Baseline Median (Min, Max) ([1]; Week 12, age 12 to <18 years): −2.5 (−17, 26) ^
- Patient/Parent Global Assessment of Overall Well Being (VAS), Change from Baseline Median (Min, Max) ([1]; Week 12, age 12 to <18 years): −23.0 (−45, 8) ^
- Physician's Global Assessment of Disease Activity (VAS), Change from Baseline Median (Min, Max) ([1]; Week 12, age 12 to <18 years): −41.0 (−94, 9) ^
- Total Number of Active Joints, Change from Baseline Median (Min, Max) ([1]; Week 12, age 12 to <18 years): −9.0 (−25, 0) ^
- CLss/F, geometric mean (mean, % CV) ([2]; AD Cohort 1: 6 to <12 years, Low Dose, ER Tablet, Day 7): 31.5 (34.2, 48) L/h
- CLss/F, geometric mean (mean, % CV) [2, 9]: 19.3 (20.2, 31) L/h
- CLss/F, geometric mean (mean, % CV) [2, 10]: 39.1 (42.3, 37) L/h
- CLss/F, geometric mean (mean, % CV) [2, 11]: 23.0 (23.6, 27) L/h
- CLss/F, geometric mean (mean, % CV) [2, 12]: 15.6 (18.6, 52) L/h
- CLss/F, geometric mean (mean, % CV) [2, 13]: 20.7 (23.6, 66) L/h
- half-life [2, 9]: 2.35 h
- half-life [2, 10]: 4.93 h
- half-life [2, 11]: 1.68 h
- Cmax ([2]; AD Cohort 2: 6 to <12 years, high dose, Day 7 (Example 4), read-out: Geometric mean Cmax at steady-state): 95.5 ng/mL
- half-life [2, 12]: 1.67 h
- Cmax ([2]; AD Cohort 4: 2 to <6 years, High Dose, IR Solution, Day 7, read-out: Cmax, geometric mean (mean, % CV)): 96.9 ng/mL
- half-life [2, 13]: 2.25 h
- Cmax ([2]; AD Cohort 4: 2 to <6 years, high dose, Day 7 (Example 4), read-out: Geometric mean Cmax at steady-state): 101 ng/mL
- solubility [3]: 199 ± 6 µg/mL (≈ 523 µM)
- AUC [4, 14]: 198 ng·h/mL
- half-life [4, 14]: 2.39 h
- AUC [4, 15]: 184 ng·h/mL
- half-life [4, 15]: 2.33 h
- Median AUC0-24 ([4]; pcJIA Group 1 (12 to <18 years), low-dose level): 278 ng·h/mL
- AUC0-24, geometric mean [4, 16]: 269 ng·h/mL
- CLss/F, geometric mean [4, 16]: 55.7 L/h
- CLss/F_adjusted (adjusted for bioavailability), geometric mean [4, 16]: 38.1 L/h
- Median AUC0-24 ([4]; pcJIA Group 2 (12 to <18 years), high-dose level): 547 ng·h/mL
- AUC0-24, geometric mean [4, 17]: 553 ng·h/mL
- CLss/F, geometric mean [4, 17]: 46.5 L/h
- CLss/F_adjusted (adjusted for bioavailability), geometric mean [4, 17]: 31.8 L/h
- CLss/F_adjusted (adjusted for bioavailability), geometric mean [4, 14]: 19.7 L/h
- AUC0-24, geometric mean [4, 18]: 318 ng·h/mL
- CLss/F, geometric mean [4, 18]: 41.6 L/h
- CLss/F_adjusted (adjusted for bioavailability), geometric mean [4, 18]: 28.5 L/h
- AUC0-24, geometric mean [4, 19]: 346 ng·h/mL
- CLss/F_adjusted (adjusted for bioavailability), geometric mean [4, 19]: 24.7 L/h
- Median AUC0-24 ([4]; pcJIA Group 4 (2 to <6 years), low-dose level): 360 ng·h/mL
- CLss/F_adjusted (adjusted for bioavailability), geometric mean [4, 15]: 15.0 L/h
- apparent oral clearance in relation to bodyweight ([4]; pcJIA patients): increased in pcJIA patients with increasing bodyweight
- median average plasma exposure over a dosing interval ([5]; 15 mg QD extended-release formulation): 15.1 ng/mL
- median average plasma exposure over a dosing interval ([5]; 30 mg QD extended-release formulation): 30.0 ng/mL
- Median AUC0-24 at steady state (5th, 95th percentile) ([5]; adult patients with RA, phase 3 trials, 15 mg ER tablet daily): 358 (234, 701) ng·h/mL
- AUC0-24 at steady state, model-estimated ([5]; multiple 15 mg QD doses): 362 ng·h/mL
- AUC0-24 at steady state, model-estimated ([5]; multiple 30 mg QD doses): 720 ng·h/mL
- discontinuation of upadacitinib due to adverse event ([6]; AD Part 2, n=3): 9.7%
- most common AEs ([6]; children with severe AD): COVID infection, headache, and abdominal discomfort
- new safety risks compared to the known safety profile ([6]; children with severe AD): No new safety risks were identified
- overall safety and tolerability ([6]; children with severe AD): generally safe and well tolerated
- patients reporting serious AEs or AEs leading to treatment discontinuation ([7]; pcJIA part 1, through 7 days): no patients
- patients reporting adverse events (AEs) ([7]; pcJIA part 1, through 7 days, 8 out of 51 patients): 15.7%
- patients reporting AEs ([7]; pcJIA part 2 and part 3, 52 out of 57 patients): 91.2%
- AE of special interest: neutropenia ([7]; pcJIA part 2 and part 3, n=2/57): 3.5%
- AE of special interest: hepatic disorder ([7]; pcJIA part 2 and part 3, n=3/57): 5.3%
- AE of special interest: elevated creatine phosphokinase ([7]; pcJIA part 2 and part 3, n=6/57): 10.5%
- patients reporting AEs leading to treatment discontinuation ([7]; pcJIA, 12 to <18 years of age group, 2 of 19): 10.5%
- patients reporting serious AEs ([7]; pcJIA, 12 to <18 years of age group, six out of 19): 31.6%
- uveitis events ([7]; pcJIA, during the study): no uveitis events occurred
- deaths ([7]; pcJIA, interim analysis): No deaths occurred
- overall safety and tolerability ([7]; pediatric patients with pcJIA): safe and well tolerated
- EASI 75, Responder ([8]; Age 2 to <6 years, N 12): 9 (75.0) n (%)
- vIGA-AD of 0 or 1 with at least two grades of reduction from baseline, Responder ([8]; Age 2 to <6 years, N 12): 3 (25.0) n (%)
- EASI 75, Responder ([8]; Age 6 to <12 years, N 15): 10 (66.7) n (%)
- vIGA-AD of 0 or 1 with at least two grades of reduction from baseline, Responder ([8]; Age 6 to <12 years, N 15): 6 (40.0) n (%)
- EASI 75, Responder [8, 20]: 7 (100) n (%)
- vIGA-AD of 0 or 1 with at least two grades of reduction from baseline, Responder [8, 20]: 3 (42.9) n (%)
- EASI 75, Responder [8, 21]: 12 (60.0) n (%)
- vIGA-AD of 0 or 1 with at least two grades of reduction from baseline, Responder [8, 21]: 6 (30.0) n (%)
- EASI 75, Responder ([8]; Overall, N 27): 19 (70.4) n (%)
- vIGA-AD of 0 or 1 with at least two grades of reduction from baseline, Responder ([8]; Overall, N 27): 9 (33.3) n (%)
